In ChEMBL document CHEMBL1240439, “Synthesis and docking studies of novel benzopyran-2-ones with anticancer activity” (2010):
The source made the active and inactive calls.

Key:
Format in all cases: functional
HOP-62 = assay: Cytotoxicity against human HOP62 cells assessed as cell growth at 10 uM after 48 hrs by sulforhodamine B assay
RPMI-8226 = assay: Cytotoxicity against human RPMI8226 cells assessed as cell growth at 10 uM after 48 hrs by sulforhodamine B assay
HL-60(TB) = assay: Cytotoxicity against human HL-60(TB) cells assessed as cell growth at 10 uM after 48 hrs by sulforhodamine B assay
SN12C = assay: Cytotoxicity against human SN12C cells assessed as cell growth at 10 uM after 48 hrs by sulforhodamine B assay
SK-MEL-28 = assay: Cytotoxicity against human SK-MEL-28 cells assessed as cell growth at 10 uM after 48 hrs by sulforhodamine B assay
PC-3 = assay: Cytotoxicity against human PC3 cells assessed as cell growth at 10 uM after 48 hrs by sulforhodamine B assay
MOLT-4 = assay: Cytotoxicity against human MOLT4 cells assessed as cell growth at 10 uM after 48 hrs by sulforhodamine B assay
OVCAR-8 = assay: Cytotoxicity against human OVCAR8 cells assessed as cell growth at 10 uM after 48 hrs by sulforhodamine B assay
HOP-92 = assay: Cytotoxicity against human HOP92 cells assessed as cell growth at 10 uM after 48 hrs by sulforhodamine B assay
SK-OV-3 = assay: Cytotoxicity against human SKOV3 cells assessed as cell growth at 10 uM after 48 hrs by sulforhodamine B assay
SK-MEL-5 = assay: Cytotoxicity against human SK-MEL-5 cells assessed as cell growth at 10 uM after 48 hrs by sulforhodamine B assay
NCI-H23 = assay: Cytotoxicity against human NCI-H23 cells assessed as cell growth at 10 uM after 48 hrs by sulforhodamine B assay
NCI-H322M = assay: Cytotoxicity against human NCI-H322M cells assessed as cell growth at 10 uM after 48 hrs by sulforhodamine B assay
MDA-MB-435 = assay: Cytotoxicity against human MDA-MB-435 cells assessed as cell growth at 10 uM after 48 hrs by sulforhodamine B assay
K562 = assay: Cytotoxicity against human K562 cells assessed as cell growth at 10 uM after 48 hrs by sulforhodamine B assay
KM12 = assay: Cytotoxicity against human KM12 cells assessed as cell growth at 10 uM after 48 hrs by sulforhodamine B assay
DU-145 = assay: Cytotoxicity against human DU145 cells assessed as cell growth at 10 uM after 48 hrs by sulforhodamine B assay
SR = assay: Cytotoxicity against human SR cells assessed as cell growth at 10 uM after 48 hrs by sulforhodamine B assay
SK-MEL-2 = assay: Cytotoxicity against human SK-MEL-2 cells assessed as cell growth at 10 uM after 48 hrs by sulforhodamine B assay
Malme-3M = assay: Cytotoxicity against human MALME-3M cells assessed as cell growth at 10 uM after 48 hrs by sulforhodamine B assay
M14 = assay: Cytotoxicity against human M14 cells assessed as cell growth at 10 uM after 48 hrs by sulforhodamine B assay
UACC-62 = assay: Cytotoxicity against human UACC62 cells assessed as cell growth at 10 uM after 48 hrs by sulforhodamine B assay
CCRF-CEM = assay: Cytotoxicity against human CCRF-CEM cells assessed as cell growth at 10 uM after 48 hrs by sulforhodamine B assay
786-0 = assay: Cytotoxicity against human 786-0 cells assessed as cell growth at 10 uM after 48 hrs by sulforhodamine B assay
MDA-MB-468 = assay: Cytotoxicity against human MDA-MB-468 cells assessed as cell growth at 10 uM after 48 hrs by sulforhodamine B assay
HCT-116 = assay: Cytotoxicity against human HCT116 cells assessed as cell growth at 10 uM after 48 hrs by sulforhodamine B assay
EKVX = assay: Cytotoxicity against human EKVX cells assessed as cell growth at 10 uM after 48 hrs by sulforhodamine B assay
SF-268 = assay: Cytotoxicity against human SF268 cells assessed as cell growth at 10 uM after 48 hrs by sulforhodamine B assay
U-251 = assay: Cytotoxicity against human U251 cells assessed as cell growth at 10 uM after 48 hrs by sulforhodamine B assay
LOX IMVI = assay: Cytotoxicity against human LOXIMVI cells assessed as cell growth at 10 uM after 48 hrs by sulforhodamine B assay
A498 = assay: Cytotoxicity against human A498 cells assessed as cell growth at 10 uM after 48 hrs by sulforhodamine B assay
SNB-75 = assay: Cytotoxicity against human SNB75 cells assessed as cell growth at 10 uM after 48 hrs by sulforhodamine B assay
NCI-H460 = assay: Cytotoxicity against human NCI-H460 cells assessed as cell growth at 10 uM after 48 hrs by sulforhodamine B assay
UO-31 = assay: Cytotoxicity against human UO31 cells assessed as cell growth at 10 uM after 48 hrs by sulforhodamine B assay
HT-29 = assay: Cytotoxicity against human HT-29 cells assessed as cell growth at 10 uM after 48 hrs by sulforhodamine B assay
BT-549 = assay: Cytotoxicity against human BT549 cells assessed as cell growth at 10 uM after 48 hrs by sulforhodamine B assay
OVCAR-5 = assay: Cytotoxicity against human OVCAR5 cells assessed as cell growth at 10 uM after 48 hrs by sulforhodamine B assay
A549 = assay: Cytotoxicity against human A549 cells assessed as cell growth at 10 uM after 48 hrs by sulforhodamine B assay
MDA-MB-231 = assay: Cytotoxicity against human MDA-MB-231 cells assessed as cell growth at 10 uM after 48 hrs by sulforhodamine B assay
IGROV-1 = assay: Cytotoxicity against human IGROV1 cells assessed as cell growth at 10 uM after 48 hrs by sulforhodamine B assay
SF-295 = assay: Cytotoxicity against human SF295 cells assessed as cell growth at 10 uM after 48 hrs by sulforhodamine B assay
SF-539 = assay: Cytotoxicity against human SF539 cells assessed as cell growth at 10 uM after 48 hrs by sulforhodamine B assay
SNB-19 = assay: Cytotoxicity against human SNB19 cells assessed as cell growth at 10 uM after 48 hrs by sulforhodamine B assay
OVCAR-4 = assay: Cytotoxicity against human OVCAR4 cells assessed as cell growth at 10 uM after 48 hrs by sulforhodamine B assay
HCC 2998 = assay: Cytotoxicity against human HCC2998 cells assessed as cell growth at 10 uM after 48 hrs by sulforhodamine B assay
MCF7 = assay: Cytotoxicity against human MCF7 cells assessed as cell growth at 10 uM after 48 hrs by sulforhodamine B assay
NCI-H522 = assay: Cytotoxicity against human NCI-H522 cells assessed as cell growth at 10 uM after 48 hrs by sulforhodamine B assay
UACC-257 = assay: Cytotoxicity against human UACC257 cells assessed as cell growth at 10 uM after 48 hrs by sulforhodamine B assay
COLO 205 = assay: Cytotoxicity against human COLO205 cells assessed as cell growth at 10 uM after 48 hrs by sulforhodamine B assay
T47D = assay: Cytotoxicity against human T47D cells assessed as cell growth at 10 uM after 48 hrs by sulforhodamine B assay
HCT-15 = assay: Cytotoxicity against human HCT15 cells assessed as cell growth at 10 uM after 48 hrs by sulforhodamine B assay
Hs-578T = assay: Cytotoxicity against human Hs 578T cells assessed as cell growth at 10 uM after 48 hrs by sulforhodamine B assay
OVCAR-3 = assay: Cytotoxicity against human OVCAR-3 cells assessed as cell growth at 10 uM after 48 hrs by sulforhodamine B assay
SW-620 = assay: Cytotoxicity against human SW620 cells assessed as cell growth at 10 uM after 48 hrs by sulforhodamine B assay
TK-10 = assay: Cytotoxicity against human TK10 cells assessed as cell growth at 10 uM after 48 hrs by sulforhodamine B assay
RXF 393 = assay: Cytotoxicity against human RXF393 cells assessed as cell growth at 10 uM after 48 hrs by sulforhodamine B assay
ACHN = assay: Cytotoxicity against human ACHN cells assessed as cell growth at 10 uM after 48 hrs by sulforhodamine B assay
NCI-H226 = assay: Cytotoxicity against human NCI-H226 cells assessed as cell growth at 10 uM after 48 hrs by sulforhodamine B assay

Measured: Activity

CCCc1cc(=O)oc2c(C)c(OCC(=O)n3nc(C)cc3C)ccc12
inactive: all assays above

CCCc1cc(=O)oc2c(C)c(OCc3nnc(S)o3)ccc12
inactive: all assays above
